# Laboratory results from patent US9403944B2, “Antipathogenic guanidinium copolymer” (priority 2012, dated 2016).
# Tests used:
# [1] = tested on: Staphylococcus aureus ATCC 6538; assay: Coated coupon surface antimicrobial test, Staphylococcus aureus; format: cell-based; details: Stainless Steel 2″ × 2″ coupons, tested by Applicant, challenged with 1.1 × 10^7 bacteria; copolymer 0.0299 g/m2, Aegis 2.36 g/m2
# Protocol: (§1) The silylated copolymer of Example II hereinabove was dissolved in isopropanol (IPA) to give a 30% w/v (IPA) solution. This IPA solution was then diluted to a 0.1% w/v concentration with additional IPA solvent.
# (§2) 2″×2″ test coupons of Formica and 316 Stainless Steel were first washed with soap and water then wiped with a 70 wt. % aqueous ethanol solution and dried. The copolymer 2600 solution was applied via misting onto the coupon surfaces using a Preval sprayer. The surfaces of the coupons were sprayed until completely covered by the copolymer solution and then dried horizontally for >3 hr. at room temperature. Control coupons were sprayed with 30 wt. % aqueous IPA solution followed by drying under identical conditions. The final areal concentration of the dried copolymer on the test coupon surface was 0.0299 g/m2. All coupons were then irradiated with a C wavelength germicidal Ultraviolet Lamp (UVC) situated within a biosafety cabinet. […]
# Antimicrobial; testing was performed by Applicant and independently by Professor. Charles Gerba, Ph.D. As a control, Applicant also determined the antimicrobial properties of a material sold in commerce by Aegis under the tradename AEM 5772-5.
# [2] = tested on: Klebsiella pneumoniae ATCC 4352; assay: Coated coupon surface antimicrobial test, Klebsiella pneumoniae; format: cell-based; details: Stainless Steel 2″ × 2″ coupons, tested by Applicant, challenged with 3.8 × 10^7 bacteria; copolymer 0.0299 g/m2, Aegis 2.36 g/m2
# Protocol: as §1, §2
# Antimicrobial; testing was performed by Applicant and independently by Professor. Charles Gerba, Ph.D. As a control, Applicant also determined the antimicrobial properties of a material sold in commerce by Aegis under the tradename AEM 5772-5. […]
smiles,measurement,setting,value
"CCCCCCCCCCCCCCCCCC[N+](C)(C)CCC[Si](O)(O)O.[Cl-] [Aegis Quaternary Ammonium Silane, 3-(trihydroxysilyl) propyldimethyloctadecyl ammonium chloride]",Ave. Log10 Reduction ± SD v. control 10 min exposure,[1],0.00 log10
same,Ave. Log10 Reduction ± SD v. control 12 min exposure,[2],1.15 ± 0.26 log10
